≈ marks a conversion by molar mass, not a printed value.
Legend:
[1] = system: Staphylococcus epidermidis; assay: Flush cultures of biofilm-colonised catheter lumens after treatment solutions (Example 1); type: cell-based
Experimental: Seeding phase: A dynamic flow sterile system that consisted of an infusion bad containing a bacterial suspension of Staphylococcus epidermidis (4×10^5 cfu/ml of saline) that infused at equal (about 41 ml/hour) into the lumens of eight ethylene oxide gas sterilized, 7-french, 20 cm polyurethane, single-lumen catheters for 12 hours at room temperature. The catheters were covered plastic sheath to ensure sterility of the surfaces. The bacterial suspension drained from the catheters into beakers.
Growth phase: The lumens of the four catheters were infused with sterile trypticase soy broth (“TSB”) at a rate of 10 ml/hour for 24 hours to allow for biofilm formation. The infused broth drained from the catheters into the beakers. […]
The clamps were removed from each end of Catheters 1, 3, 5, and 7 and the treatment solutions were drained. […] Hundred microliter aliquots of the collected portions of the flushed TSB and 10-fold serial dilutions were inoculated onto chocolate agar plates and colony counts were determined after incubation of agar plates at 37° C. for 48 hours.

[2] = system: Staphylococcus epidermidis; assay: Minimal bactericidal concentration for the studied strain; type: cell-based; details: studied strain of Staphylococcus epidermidis
Experimental: Treatment phase: The lumens of the eight catheters were treated with biofilm penetrating composition solutions as described in Table I. The N-acetylcysteine and rifampin are used at a concentration equivalent to ten times the corresponding minimal bactericidal concentration of the N-aceylcysteine and the rifampin for the studied strain of Staphylococcus epidermidis (3.1 mg/ml and 0.02 μg/ml respectively).

Question: How did the “effect on biofilm and biofilm embedded microorganisms (in words)” value ([1]; Example 1 conclusion, 31 mg/ml in phosphate buffered saline) turn out when CC(=O)N[C@@H](CS)C(=O)O [N-acetylcysteine] was run?
Answer: effectively penetrates and breaks-up the biofilm and kills biofilm embedded microorganisms

Question: And the “antimicrobial activity against biofilm embedded microorganisms compared with rifampin (in words)” value ([1]; assessed by flush cultures, at the concentration used)?
Answer: surpasses the antimicrobial activity of rifampin

Question: And the MBC [2]?
Answer: 3100 µg/mL (≈ 19 mM)

Question: Which MBC [2] does the source give for CO[C@H]1/C=C/O[C@@]2(C)Oc3c(C)c(O)c4c(O)c(c(/C=N/N5CCN(C)CC5)c(O)c4c3C2=O)NC(=O)/C(C)=C\C=C\[C@H](C)[C@H](O)[C@@H](C)[C@@H](O)[C@@H](C)[C@H](OC(C)=O)[C@@H]1C [rifampin] here?
Answer: 0.02 µg/mL (≈ 2.43e-05 mM)
